Assay results from ChEMBL document CHEMBL3870316, “Design, synthesis and structure-activity relationships of novel 4-phenoxyquinoline derivatives containing 1,2,4-triazolone moiety as c-Met kinase inhibitors” (Eur J Med Chem, 2016).
pIC50: −log10 of the molar value.

Tests used:
[1] = Cytotoxicity against c-Met over-expressed human HT-29 cells assessed as cell growth inhibition after 72 hrs by MTT assay; conditions: HT-29, 72 h
[2] = Cytotoxicity against c-Met over-expressed human A549 cells assessed as cell growth inhibition after 72 hrs by MTT assay; conditions: A549, 72 h
[3] = Cytotoxicity against c-Met over-expressed human MKN45 cells assessed as cell growth inhibition after 72 hrs by MTT assay; conditions: MKN-45, 72 h
[4] = Cytotoxicity against c-Met over-expressed human H460 cells assessed as cell growth inhibition after 72 hrs by MTT assay; conditions: NCI-H460, 72 h
Homo sapiens = organism: Homo sapiens; test: Selectivity ratio of IC50 for VEGFR2 (unknown origin) to IC50 for c-MET (unknown origin)

COc1cc2c(Oc3ccc(NC(=O)c4nn(-c5ccccc5Cl)c(=O)n4C4CC4)cc3F)ccnc2cc1OCCCN1CCN(C)CC1
pIC50 [1]: 6.72
pIC50 [2]: 6.89
pIC50 [3]: 7.20
pIC50 [4]: 6.64

COc1cc2c(Oc3ccc(NC(=O)c4nn(-c5ccccc5Cl)c(=O)n4C)cc3F)ccnc2cc1OCCCN1CCN(C)CC1
pIC50 [1]: 6.77
pIC50 [2]: 6.80
pIC50 [3]: 7.06
pIC50 [4]: 6.47

CCn1c(C(=O)Nc2ccc(Oc3ccnc4cc(OCCCN5CCC(C)CC5)c(OC)cc34)c(F)c2)nn(-c2ccccc2OC(F)(F)F)c1=O
pIC50 [1]: 6.80
pIC50 [2]: 6.66
pIC50 [3]: 7.06
pIC50 [4]: 6.70

CCn1c(C(=O)Nc2ccc(Oc3ccnc4cc(OCCCN5CCCCC5)c(OC)cc34)c(F)c2)nn(-c2ccccc2OC(F)(F)F)c1=O
pIC50 [1]: 6.72
pIC50 [2]: 6.72
pIC50 [3]: 6.92
pIC50 [4]: 6.60

COc1cc2c(Oc3ccc(NC(=O)c4nn(-c5ccc(OC(F)F)cc5)c(=O)n4C)cc3F)ccnc2cc1OCCCN1CCN(C)CC1
pIC50 [1]: 6.66
pIC50 [2]: 6.54
pIC50 [3]: 6.85
pIC50 [4]: 6.54

COc1cc2c(Oc3ccc(NC(=O)c4nn(-c5ccccc5)c(=O)n4C)cc3F)ccnc2cc1OCCCN1CCCCC1
pIC50 [1]: 6.06
pIC50 [2]: 6.35
pIC50 [3]: 6.34
pIC50 [4]: 6.11

COc1cc2c(Oc3ccc(NC(=O)c4nn(-c5ccccc5OC(F)(F)F)c(=O)n4C)cc3F)ccnc2cc1OCCCN1CCC(C)CC1
pIC50 [1]: 6.72
pIC50 [2]: 6.74
pIC50 [3]: 7.02
pIC50 [4]: 6.46

COc1cc2c(Oc3ccc(NC(=O)c4nn(-c5ccccc5)c(=O)n4C)cc3F)ccnc2cc1OCCCN1CCCC1
pIC50 [1]: 5.84
pIC50 [2]: 6.00
pIC50 [3]: 5.94
pIC50 [4]: 5.89

COc1cc2c(Oc3ccc(NC(=O)c4nn(-c5c(C)cccc5C)c(=O)n4C)cc3F)ccnc2cc1OCCCN1CCCCC1
pIC50 [1]: 5.77
pIC50 [2]: 5.70
pIC50 [3]: 5.73
pIC50 [4]: 5.52

COc1cc2c(Oc3ccc(NC(=O)c4nn(-c5ccc(F)cc5)c(=O)n4C)cc3F)ccnc2cc1OCCCN1CCCCC1
pIC50 [1]: 6.40
pIC50 [2]: 6.46
pIC50 [3]: 6.40
pIC50 [4]: 6.24

COc1cc2c(Oc3ccc(NC(=O)c4nn(-c5ccccc5)c(=O)n4C)cc3F)ccnc2cc1OCCCN1CCOCC1
pIC50 [1]: 5.84
pIC50 [2]: 6.15
pIC50 [3]: 6.02
pIC50 [4]: 5.77

COc1ccc(-n2nc(C(=O)Nc3ccc(Oc4ccnc5cc(OCCCN6CCCCC6)c(OC)cc45)c(F)c3)n(C)c2=O)cc1
pIC50 [1]: 5.51
pIC50 [2]: 6.02
pIC50 [3]: 6.06
pIC50 [4]: 5.55

COc1cc2c(Oc3ccc(NC(=O)c4cn(-c5ccccc5Cl)nn4)cc3F)ccnc2cc1OCCCN1CCCCC1
Ratio IC50 (Homo sapiens): 53

COc1cc2c(Oc3ccc(NC(=O)c4nn(-c5cccc(F)c5)c(=O)n4C)cc3F)ccnc2cc1OCCCN1CCN(C)CC1
pIC50 [1]: 6.54
pIC50 [2]: 6.55
pIC50 [3]: 6.39
pIC50 [4]: 6.51

COc1cc2c(Oc3ccc(NC(=O)c4nn(-c5c(C)cccc5C)c(=O)n4C)cc3F)ccnc2cc1OCCCN1CCC(C)CC1
pIC50 [1]: 5.57
pIC50 [2]: 5.34
pIC50 [3]: 5.65
pIC50 [4]: 5.49

COc1cc2c(Oc3ccc(NC(=O)c4nn(-c5ccc(OC(F)F)cc5)c(=O)n4C)cc3F)ccnc2cc1OCCCN1CCCCC1
pIC50 [1]: 6.55
pIC50 [2]: 6.66
pIC50 [3]: 6.89
pIC50 [4]: 6.51

COc1cc2c(Oc3ccc(NC(=O)c4nn(-c5ccccc5Cl)c(=O)n4C4CC4)cc3F)ccnc2cc1OCCCN1CCC(C)CC1
pIC50 [1]: 6.85
pIC50 [2]: 6.70
pIC50 [3]: 6.96
pIC50 [4]: 6.80

COc1cc2c(Oc3ccc(NC(=O)c4nn(-c5ccc(OC(F)F)cc5)c(=O)n4C)cc3F)ccnc2cc1OCCCN1CCC(C)CC1
pIC50 [1]: 6.72
pIC50 [2]: 6.92
pIC50 [3]: 6.66
pIC50 [4]: 6.60

COc1cc2c(Oc3ccc(NC(=O)c4nn(-c5ccc(Cl)cc5Cl)c(=O)n4C)cc3F)ccnc2cc1OCCCN1CCCCC1
pIC50 [1]: 6.47
pIC50 [2]: 6.49
pIC50 [3]: 6.54
pIC50 [4]: 6.42

COc1cc2c(Oc3ccc(NC(=O)c4nn(-c5ccccc5OC(F)(F)F)c(=O)n4C4CC4)cc3F)ccnc2cc1OCCCN1CCN(C)CC1
pIC50 [1]: 7.05
pIC50 [2]: 6.96
pIC50 [3]: 7.21
pIC50 [4]: 6.74

COc1cc2c(Oc3ccc(NC(=O)c4nn(-c5ccccc5Cl)c(=O)n4C)cc3F)ccnc2cc1OCCCN1CCC(C)CC1
pIC50 [1]: 6.82
pIC50 [2]: 6.62
pIC50 [3]: 6.46
pIC50 [4]: 6.70

COc1cc2c(Oc3ccc(NC(=O)c4nn(-c5ccc(Cl)cc5Cl)c(=O)n4C)cc3F)ccnc2cc1OCCCN1CCC(C)CC1
pIC50 [1]: 6.74
pIC50 [2]: 6.46
pIC50 [3]: 6.40
pIC50 [4]: 6.35

COc1cc2c(Oc3ccc(NC(=O)c4nn(-c5ccccc5OC(F)(F)F)c(=O)n4C)cc3F)ccnc2cc1OCCCN1CCCCC1
pIC50 [1]: 6.68
pIC50 [2]: 6.89
pIC50 [3]: 7.10
pIC50 [4]: 6.54

COc1ccc(-n2nc(C(=O)Nc3ccc(Oc4ccnc5cc(OCCCN6CCC(C)CC6)c(OC)cc45)c(F)c3)n(C)c2=O)cc1
pIC50 [1]: 5.84
pIC50 [2]: 6.21
pIC50 [3]: 6.23
pIC50 [4]: 5.62

COc1cc2c(Oc3ccc(NC(=O)c4nn(-c5cccc(F)c5)c(=O)n4C)cc3F)ccnc2cc1OCCCN1CCCCC1
pIC50 [1]: 6.37
pIC50 [2]: 6.42
pIC50 [3]: 6.48
pIC50 [4]: 6.46

COc1cc2c(Oc3ccc(NC(=O)c4nn(-c5ccccc5)c(=O)n4C)cc3F)ccnc2cc1OCCCN1CCN(C)CC1
pIC50 [1]: 6.19
pIC50 [2]: 6.34
pIC50 [3]: 6.25
pIC50 [4]: 6.21

COc1cc2c(Oc3ccc(NC(=O)c4nn(-c5ccc(F)cc5)c(=O)n4C)cc3F)ccnc2cc1OCCCN1CCC(C)CC1
pIC50 [1]: 6.48
pIC50 [2]: 6.39
pIC50 [3]: 6.51
pIC50 [4]: 6.62

COc1cc2c(Oc3ccc(NC(=O)c4nn(-c5ccccc5)c(=O)n4C)cc3F)ccnc2cc1OCCCN1CCC(C)CC1
pIC50 [1]: 6.17
pIC50 [2]: 6.42
pIC50 [3]: 6.33
pIC50 [4]: 6.08

CCn1c(C(=O)Nc2ccc(Oc3ccnc4cc(OCCCN5CCN(C)CC5)c(OC)cc34)c(F)c2)nn(-c2ccccc2OC(F)(F)F)c1=O
pIC50 [1]: 6.82
pIC50 [2]: 6.70
pIC50 [3]: 7.24
pIC50 [4]: 6.60

COc1cc2c(Oc3ccc(NC(=O)c4nn(-c5ccc(F)cc5)c(=O)n4C)cc3F)ccnc2cc1OCCCN1CCCC1
pIC50 [1]: 6.01
pIC50 [2]: 6.17
pIC50 [3]: 6.12
pIC50 [4]: 6.14

COc1cc2c(Oc3ccc(NC(=O)c4nn(-c5ccccc5F)c(=O)n4C)cc3F)ccnc2cc1OCCCN1CCC(C)CC1
pIC50 [1]: 6.96
pIC50 [2]: 6.92
pIC50 [3]: 6.72
pIC50 [4]: 6.60

COc1cc2c(Oc3ccc(NC(=O)c4nn(-c5ccccc5OC(F)(F)F)c(=O)n4C4CC4)cc3F)ccnc2cc1OCCCN1CCC(C)CC1
pIC50 [1]: 6.96
pIC50 [2]: 6.92
pIC50 [3]: 7.00
pIC50 [4]: 6.62

COc1cc2c(Oc3ccc(NC(=O)c4nn(-c5ccccc5OC(F)(F)F)c(=O)n4C)cc3F)ccnc2cc1OCCCN1CCN(C)CC1
pIC50 [1]: 6.74
pIC50 [2]: 7.05
pIC50 [3]: 7.70
pIC50 [4]: 6.70

COc1cc2c(Oc3ccc(NC(=O)c4nn(-c5ccc(F)cc5)c(=O)n4C)cc3F)ccnc2cc1OCCCN1CCOCC1
pIC50 [1]: 5.91
pIC50 [2]: 6.40
pIC50 [3]: 6.19
pIC50 [4]: 6.09

COc1ccc(-n2nc(C(=O)Nc3ccc(Oc4ccnc5cc(OCCCN6CCN(C)CC6)c(OC)cc45)c(F)c3)n(C)c2=O)cc1
pIC50 [1]: 5.89
pIC50 [2]: 6.14
pIC50 [3]: 5.78
pIC50 [4]: 5.67

COc1cc2c(Oc3ccc(NC(=O)c4nn(-c5c(C)cccc5C)c(=O)n4C)cc3F)ccnc2cc1OCCCN1CCN(C)CC1
pIC50 [1]: 5.90
pIC50 [2]: 6.01
pIC50 [3]: 5.78
pIC50 [4]: 5.62

COc1cc2c(Oc3ccc(NC(=O)c4nn(-c5ccccc5F)c(=O)n4C)cc3F)ccnc2cc1OCCCN1CCCCC1
pIC50 [1]: 6.80
pIC50 [2]: 6.66
pIC50 [3]: 7.15
pIC50 [4]: 6.59

COc1cc2c(Oc3ccc(NC(=O)c4nn(-c5ccc(Cl)cc5Cl)c(=O)n4C)cc3F)ccnc2cc1OCCCN1CCN(C)CC1
pIC50 [1]: 6.52
pIC50 [2]: 6.60
pIC50 [3]: 6.74
pIC50 [4]: 6.62

COc1cc2c(Oc3ccc(NC(=O)c4nn(-c5ccccc5Cl)c(=O)n4C)cc3F)ccnc2cc1OCCCN1CCCCC1
pIC50 [1]: 6.74
pIC50 [2]: 6.72
pIC50 [3]: 6.66
pIC50 [4]: 6.52

COc1cc2c(Oc3ccc(NC(=O)c4nn(-c5ccc(F)cc5)c(=O)n4C)cc3F)ccnc2cc1OCCCN1CCN(C)CC1
pIC50 [1]: 6.60
pIC50 [2]: 6.62
pIC50 [3]: 6.46
pIC50 [4]: 6.43

COc1cc2c(Oc3ccc(N/C=C4\C(=O)N(c5ccccc5C(F)(F)F)N=C4C)cc3F)ccnc2cc1OCCCN1CCOCC1
Ratio IC50 (Homo sapiens): 172

COc1cc2c(Oc3ccc(NC(=O)c4nn(-c5cccc(F)c5)c(=O)n4C)cc3F)ccnc2cc1OCCCN1CCC(C)CC1
pIC50 [1]: 6.40
pIC50 [2]: 6.36
pIC50 [3]: 6.70
pIC50 [4]: 6.54
